This note sets out measurements from patent US12581252B2, “Substituted pyrrolo[3,4-b]pyridines as PI3K-α inhibitors” (Relay Therapeutics, Inc., priority 2020, dated 2026).

Bounds are passed on as bounds.

The target in this experiment is H1047R PIK3CA enzyme (Homo sapiens, UniProt P42336, H1047R). The experiment can be described thus: ADP-Glo Biochemical PIK3CA Kinase Assay.
Sequence of H1047R PIK3CA enzyme (P42336 whole entry H1047R): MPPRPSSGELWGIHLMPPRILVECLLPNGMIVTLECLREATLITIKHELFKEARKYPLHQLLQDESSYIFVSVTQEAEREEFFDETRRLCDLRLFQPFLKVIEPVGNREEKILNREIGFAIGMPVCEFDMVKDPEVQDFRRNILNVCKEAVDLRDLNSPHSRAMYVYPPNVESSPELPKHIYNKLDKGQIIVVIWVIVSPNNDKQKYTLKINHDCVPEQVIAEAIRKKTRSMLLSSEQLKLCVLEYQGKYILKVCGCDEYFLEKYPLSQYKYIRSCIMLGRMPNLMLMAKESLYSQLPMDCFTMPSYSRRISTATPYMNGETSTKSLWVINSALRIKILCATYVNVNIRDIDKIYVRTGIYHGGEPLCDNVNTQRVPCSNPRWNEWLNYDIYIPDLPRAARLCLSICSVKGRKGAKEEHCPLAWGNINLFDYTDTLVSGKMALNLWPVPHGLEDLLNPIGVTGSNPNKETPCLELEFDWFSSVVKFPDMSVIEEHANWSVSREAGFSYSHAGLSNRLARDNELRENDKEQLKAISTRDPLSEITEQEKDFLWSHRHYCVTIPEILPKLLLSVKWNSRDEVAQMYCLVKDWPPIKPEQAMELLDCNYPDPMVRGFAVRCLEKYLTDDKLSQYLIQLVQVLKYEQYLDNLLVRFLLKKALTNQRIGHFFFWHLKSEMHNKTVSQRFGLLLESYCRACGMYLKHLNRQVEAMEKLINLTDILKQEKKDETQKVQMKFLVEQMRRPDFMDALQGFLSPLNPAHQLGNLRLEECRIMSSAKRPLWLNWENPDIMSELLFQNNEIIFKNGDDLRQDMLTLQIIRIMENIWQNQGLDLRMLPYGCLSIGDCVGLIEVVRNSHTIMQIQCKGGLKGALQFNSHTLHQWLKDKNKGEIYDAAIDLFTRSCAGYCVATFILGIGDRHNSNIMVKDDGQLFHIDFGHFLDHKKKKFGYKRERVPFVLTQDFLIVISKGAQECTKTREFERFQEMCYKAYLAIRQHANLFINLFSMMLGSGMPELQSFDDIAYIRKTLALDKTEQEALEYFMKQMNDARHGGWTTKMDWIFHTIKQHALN
Sequence of H1047R PIK3CA enzyme (P27986 whole entry partner): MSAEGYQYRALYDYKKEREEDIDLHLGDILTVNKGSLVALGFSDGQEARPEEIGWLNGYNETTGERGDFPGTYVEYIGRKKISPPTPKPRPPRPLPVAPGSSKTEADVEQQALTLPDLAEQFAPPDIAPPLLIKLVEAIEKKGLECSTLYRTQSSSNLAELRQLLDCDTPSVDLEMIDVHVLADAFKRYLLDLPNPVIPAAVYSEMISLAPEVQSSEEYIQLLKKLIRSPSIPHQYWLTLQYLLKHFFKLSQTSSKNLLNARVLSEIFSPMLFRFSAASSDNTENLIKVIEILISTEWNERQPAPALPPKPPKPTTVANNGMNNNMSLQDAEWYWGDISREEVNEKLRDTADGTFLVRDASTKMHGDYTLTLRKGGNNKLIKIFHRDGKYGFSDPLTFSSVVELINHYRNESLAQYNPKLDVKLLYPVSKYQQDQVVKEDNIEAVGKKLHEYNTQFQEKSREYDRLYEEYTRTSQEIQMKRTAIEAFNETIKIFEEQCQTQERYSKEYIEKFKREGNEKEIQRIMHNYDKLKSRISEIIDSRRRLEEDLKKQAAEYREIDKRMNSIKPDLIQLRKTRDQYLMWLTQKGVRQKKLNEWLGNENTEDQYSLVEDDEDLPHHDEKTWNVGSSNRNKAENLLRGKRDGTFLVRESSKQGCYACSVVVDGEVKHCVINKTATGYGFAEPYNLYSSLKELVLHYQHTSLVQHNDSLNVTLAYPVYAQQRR
As for `O=C(Nc1cc(Br)cc2c1C(c1cc(F)ccc1Cl)NC2=O)c1cncc(C(F)(F)F)c1` (stereo not shown) [Compound I-957], the IC50 was 1000 to 10000 nM.
`Cc1ccccc1C1NC(=O)c2c(C(N)=O)ccc(NC(=O)c3cc(F)cc(C(F)(F)F)c3)c21` (stereo not shown) [Compound I-339] had an IC50 of 100 to 500 nM.
The molecule `Cc1ccccc1C1NC(=O)c2nccc(NC(=O)N3CCc4ccccc43)c21` (stereo not shown) [Compound I-147, N-(7-oxo-5-(o-tolyl)-6,7-dihydro-5H-pyrrolo[3,4-b]pyridin-4-yl)indoline-1-carboxamide] had an IC50 of 100 to 500 nM.
Regarding `O=C(Nc1cc(CCC(F)(F)F)nc2c1C(c1cc(F)ccc1Cl)NC2=O)c1cc(F)cc(C(F)(F)F)c1` (stereo not shown) [Compound I-529], the IC50 is at most 100 nM.
`N#Cc1cnn(-c2cc(NC(=O)N3C[C@H](O)c4cc(F)ccc43)c3c(c2)C(=O)N[C@@H]3c2cc(F)ccc2Cl)c1` (single isomer, unassigned) [Compound I-2406] registered an IC50 of 1000 to 10000 nM.
For `O=C1NC(c2cc(F)ccc2Cl)c2c(NC(=O)N3CCC4(CC4)C3)cccc21` (stereo not shown) [Compound I-2468] the value was 10000 to 100000 nM; for `O=C(Nc1cc(-c2cc(F)c3ncnn3c2)cc2c1[C@H](c1cc(F)ccc1Cl)NC2=O)c1cc(F)cc(C(F)(F)F)c1` [Compound I-1704], at most 100 nM.
The molecule `N#Cc1cnn(-c2cc(NC(=O)c3cc(F)cc(C(F)(F)F)c3)c3c(c2)C(=O)NC3c2cc(F)ccc2Cl)c1` (stereo not shown) [Compound I-1140] showed an IC50 of at most 100 nM.
Turning to `Cc1ccccc1C1NC(=O)c2cccc(NC(=O)c3noc4ccc(Cl)cc34)c21` (stereo not shown) [Compound I-200], the IC50 is 1000 to 10000 nM.
Take `O=C1NC(c2cc(F)ccc2Cl)c2c(NC(=O)c3noc4c3COCC4)cccc21` (stereo not shown) [Compound I-2232]: the IC50 lay in the range of 10000 to 100000 nM.
`O=C1NC(c2cc(F)ccc2Cl)c2c1cc(-c1ccc3ncnn3c1)cc2N1CCn2c(nnc2C(F)(F)F)C1` (stereo not shown) [Compound I-2040]: the IC50 lay in the range of 10000 to 100000 nM.
As for `O=C1N[C@H](c2cc(F)ccc2Cl)c2c(NC(=O)N3C[C@H](O)c4cc(F)ccc43)cc(-c3cnn(C(F)F)c3)cc21` (single isomer, unassigned) [Compound I-2475], the IC50 was 1000 to 10000 nM.
For the molecule `O=C(Nc1cccc2c1C(C(=O)N1CCCCC1)NC2=O)c1cc(F)cc(C(F)(F)F)c1` (stereo not shown) [Compound I-2041], the half-inhibitory concentration (IC50) fell in the range of 10000 to 100000 nM.
As to `O=C(Nc1cc(N2CCc3cnccc32)cc2c1C(c1cc(F)ccc1Cl)NC2=O)c1cc(F)cc(C(F)(F)F)c1` (stereo not shown) [Compound I-1261], the IC50 was at most 100 nM.
On to `N#Cc1cnn2ccc(-c3cc(NC(=O)c4cc(F)cc(C(F)(F)F)c4)c4c(c3)C(=O)N[C@H]4c3cc(F)ccc3Cl)cc12` [Compound I-1799], for which the IC50 is at most 100 nM.
For `Cc1ccccc1C1NC(=O)c2nccc(NC(=O)N3CCc4ccc(F)cc43)c21` (stereo not shown) [Compound I-177], the IC50 is 500 to 1000 nM.
On to `CS(=O)(=O)c1cc(NC(=O)c2cc(F)cc(C(F)(F)F)c2)c2c(c1)C(=O)NC2(c1cc(F)ccc1Cl)S(=O)(=O)O` (stereo not shown) [Compound I-1296], for which the IC50 lay within 1000 to 10000 nM.
In the case of `O=C1NC(c2cc(F)ccc2Cl)c2c(NC(=O)C3(c4ccccc4)COC3)cc(Br)cc21` (stereo not shown) [Compound I-632], the IC50 lay in the range of 10000 to 100000 nM.
`O=C(Nc1cccc2c1[C@@H](c1cc(F)ccc1Cl)NC2=O)c1cc(F)cc(C(F)(F)F)c1` [Compound I-860]: the IC50 was in the range of 1000 to 10000 nM.
With `CS(=O)(=O)c1ccc(-c2cc(NC(=O)c3cc(F)cc(C(F)(F)F)c3)c3c(c2)C(=O)NC3c2cc(F)ccc2Cl)nc1` (stereo not shown) [Compound I-1456], the IC50 is at most 100 nM.
Regarding `Cn1ccc2c(C(=O)Nc3cc(Br)cc4c3C(c3cc(F)ccc3Cl)NC4=O)cccc21` (stereo not shown) [Compound I-670], the IC50 is 10000 to 100000 nM.
As for `O=C(Nc1cc(-c2ccc3ncnn3c2)cc2c1C(c1cc(F)ccc1Cl)NC2=O)c1cc(F)cc2c1NC(=O)C2(F)F` (stereo not shown) [Compound I-1547], the figure is at most 100 nM.
`O=C1N[C@@H](c2cc(F)ccc2Cl)c2c(NC(=O)N3C[C@@](O)(C(F)(F)F)c4cc(F)ccc43)ccc(Cl)c21` (single isomer, unassigned) [Compound I-2621] returned an IC50 of 500 to 1000 nM.
On to `C=CCCCOc1cc(NC(=O)c2cc(F)cc(C(F)(F)F)c2)c2c(c1)C(=O)NC2c1cc(F)ccc1Cl` (stereo not shown) [Compound I-1234], for which the IC50 is 500 to 1000 nM.
As to `O=C(Nc1cc(Br)cc2c1[C@H](c1cc(Cl)ccc1Cl)NC2=O)c1cc(F)cc(C(F)(F)F)c1` [Compound I-765], the IC50 is at most 100 nM.
`O=C(Nc1cc(-c2ccc3nnc(C(F)F)n3c2)cc2c1[C@H](c1cc(F)ccc1Cl)NC2=O)c1cc(F)cc(C(F)(F)F)c1` [Compound I-1925] gave a half-inhibitory concentration (IC50) of at most 100 nM.
For `O=C(Nc1cc(-c2cc(F)c3ncnn3c2)cc2c1C(c1cc(F)ccc1Cl)NC2=O)c1cc(F)cc(C(F)(F)F)c1` (stereo not shown) [Compound I-1653] the value was at most 100 nM.
Take `COc1cccc(-c2cc(NC(=O)c3cc(F)cc(C(F)(F)F)c3)c3c(c2)C(=O)N[C@@H]3c2cc(F)ccc2Cl)n1` (stereo in doubt) [Compound I-1007]: the IC50 lay in the range of 1000 to 10000 nM.
`CC(C)c1cc(N)nn1C(=O)Nc1cccc2c1C(c1cc(F)ccc1Cl)NC2=O` (stereo not shown) [Compound I-2466] came in with an IC50 of 10000 to 100000 nM.
For the molecule `O=C1NC(c2cc(F)ccc2Cl)c2c(Nc3cc4ccccc4cn3)cc(Br)cc21` (stereo not shown) [Compound I-1683], the IC50 is 10000 to 100000 nM.
Consider `O=C(Nc1cccc2c1C(c1ccc(Br)cc1Cl)NC2=O)c1cc(F)cc(C(F)(F)F)c1` (stereo not shown) [Compound I-409], for which the IC50 is 1000 to 10000 nM.
As for `O=C1N[C@H](c2cc(F)ccc2Cl)c2c(NC(=O)N3C[C@](O)(C(F)(F)F)c4cc(F)ccc43)cc(N3CCCC3=O)cc21` (single isomer, unassigned) [Compound I-2666], the figure is 1000 to 10000 nM; as for `CC(C)(O)c1cc(NC(=O)c2cc(F)cc(C(F)(F)F)c2)c2c(c1)C(=O)NC2c1cc(F)ccc1C(F)F` (stereo not shown) [Compound I-239], at most 100 nM; as for `CC(C)(O)C12CC(C(=O)Nc3cccc4c3C(c3cc(F)ccc3Cl)NC4=O)(C1)C2` (stereo not shown) [Compound I-2117], 10000 to 100000 nM.
`O=C1NC(c2ccccc2Cl)c2c(NC(=O)c3coc4c(F)cc(F)cc34)ccnc21` (stereo not shown) [Compound I-209]: the IC50 lay within 500 to 1000 nM.
`CC(=O)N1CCN(c2cc(-c3ccc4ncnn4c3)cc3c2C(c2cc(F)ccc2Cl)NC3=O)CC1` (stereo not shown) [Compound I-2047]: the IC50 was in the range of 10000 to 100000 nM.
For `O=C(Nc1cccc2c1[C@H](CC1CCCCC1)NC2=O)c1cc(F)cc(C(F)(F)F)c1` [Compound I-2058] the value was 500 to 1000 nM; for `O=C(Nc1cccc2c1C(c1nc(C(F)(F)F)cs1)NC2=O)c1cc(F)cc(C(F)(F)F)c1` (stereo not shown) [Compound I-2330], 10000 to 100000 nM; for `CN(C)/C=N/c1cc(Br)cc2c1C(c1cc(F)ccc1Br)NC2=O` (stereo not shown) [Compound I-326], 10000 to 100000 nM.
As for `O=C1N[C@H](c2cc(F)ccc2Cl)c2c(NC(=O)N3C[C@@](O)(CO)c4ccccc43)cccc21` [Compound I-2167], the figure is 10000 to 100000 nM; as for `Cc1ccccc1[C@@H]1NC(=O)c2cccc(NC(=O)c3coc4c(F)cc(F)cc34)c21` [Compound I-98], 100 to 500 nM; as for `CC(C)(O)c1cc(NC(=O)N2CCc3ccccc32)c2c(c1)C(=O)N[C@H]2c1cc(F)ccc1Cl` [Compound I-713], at most 100 nM.
`CC(C)(O)c1cc(NC(=O)c2cc(F)cc(C(F)(F)F)c2)c2c(n1)C(=O)NC2c1cc(F)ccc1Cl` (stereo not shown) [Compound I-242]: the IC50 lay in the range of 100 to 500 nM.
